The text below walks through data of US10596268B2, “Conjugate of dezocine and polyethylene glycol” (JenKem Technology Co., Ltd. (Beijing), priority 2016, dated 2020).

For data set [1], the system named is CFA rat model. The data set is described as follows: Pharmacodynamic experiment: Frey's hair pain threshold in CFA rat model. The format is in vivo, SD rats. Conditions: oral 10 mg/kg; for Pain threshold value, Frey's hair: mean ± standard deviation.
The conditions of data set [2]: in vivo; cited from earlier work.
Data set [3] can be described thus: Pharmacokinetic experiment: drug concentration in plasma of SD rats after oral administration (LC-MS/MS). Conditions: 10 mg/kg; for AUC(0-t) / Cmax / Tmax / half-life: male, SD, rat, po; for AUClast (Plasma) / Cmax (Plasma) / t1/2 (Plasma) / tmax (Plasma): SD rats, oral.
A short description of data set [4]: Pharmacokinetic experiment: drug concentration in brain tissue of SD rats after oral administration (LC-MS/MS). Particulars: 10 mg/kg; for AUClast (Brain) / Cmax (Brain) / AUClast Ratio (Brain/Plasma) / t1/2 (Brain) / tmax (Brain): SD rats, oral; for AUClast (Brain) / Cmax (Brain) / t1/2 (Brain) / tmax (Brain): brain tissue; for Kp / Tmax / half-life: male, SD, rat, po; for Kp: brain and plasma; for Tmax / half-life: brain.

Where [5] appears, read: 0 h (basal value before administration).

Usually AUC(0-t) stands for exposure summed from dosing to a finite time, without extrapolation to infinity. Lower therefore signals low exposure. Broadly, the Cmax is the highest concentration seen after dosing. A word on the Tmax: it is the time at which the peak concentration occurs. What is called half-life is the time in which the quantity being followed falls by half. Read a high half-life as slow loss. In general, Kp refers to the ratio of the level in a tissue or fluid to that in plasma or blood. In the case of `C[C@@]12CCCCC[C@@H](Cc3ccc(O)cc31)[C@@H]2N` [JK-2215D00, 13-amino-5,6,7,8,9,10,11,12-octahydro-5-methyl-5,11-methylenebenzocyclodecen-3-ol, reference compound], in data set [1] (setting [5]), the “Pain threshold value, Frey's hair” value is 7.7 ± 1.1 g. For the same compound, the “Pain threshold value, Frey's hair” value in data set [1] (0.25 h after administration) came out at 9.8 ± 1.0 g. Further, the “Pain threshold value, Frey's hair” value in data set [1] (2 h after administration) worked out at 10.2 ± 2.7 g. Besides, the “Pain threshold value, Frey's hair” value in data set [1] (6 h after administration) came out at 9.2 ± 1.4 g. In addition, the “Pain threshold value, Frey's hair” value in data set [1] (24 h after administration) worked out at 7.5 ± 1.8 g. Also, the “analgesic effect at 6 h after administration” value in data set [1] (6 h) is listed as “not significant”. In data set [2], the “analgesic effect relative to pethidine” value was 5-9 times, the “average peak concentration at which adverse reactions occur” value is 45 µg/L and the “blood concentration producing a potent analgesic effect” value is 5 to 9 µg/L. In data set [3], the AUC(0-t) worked out at 0.232 µg·h/mL, the Cmax was 0.193 µg/mL, the Tmax amounted to 1 h and the half-life was 1.41 h. For the same compound, in data set [4], the “AUClast (Brain)” value was 267 ng·h/g, the “Cmax (Brain)” value is 221 ng/g, the Kp came out at 1.15 and the Tmax was determined as 1 h. In data set [4], this compound had a half-life of 2.05 h.

For the compound `COCCOCCOCCOCCOCCOCCOc1ccc2c(c1)C1(C)CCCCCC(C2)C1N` (stereo not drawn) [JK-2215D01, Monomethoxyhexaethylene Glycol-Dezocine Conjugate], in data set [1] (setting [5]), the “Pain threshold value, Frey's hair” value is 7.6 ± 0.8 g. In data set [1] (0.25 h after administration), the “Pain threshold value, Frey's hair” value worked out at 8.7 ± 1.3 g. In data set [1] (2 h after administration), the “Pain threshold value, Frey's hair” value is given as 9.1 ± 1.3 g. For the same compound, the “Pain threshold value, Frey's hair” value in data set [1] (6 h after administration) was found to be 8.7 ± 1.1 g. Besides, in data set [1] (24 h after administration), the “Pain threshold value, Frey's hair” value amounted to 7.8 ± 1.4 g. Besides, in data set [3], the “AUClast (Plasma)” value worked out at 1.366 µg·h/mL, the “Cmax (Plasma)” value was determined as 0.345 µg/mL, the “t1/2 (Plasma)” value is 4.33 h and the “tmax (Plasma)” value was found to be 3 h. In data set [4], the “AUClast Ratio (Brain/Plasma)” value turned out to be 0.734, the “AUClast (Brain)” value stood at 925 ng·h/g, the “Cmax (Brain)” value turned out to be 147 ng/g and the “t1/2 (Brain)” value turned out to be 17.6 h. Besides, the “tmax (Brain)” value in data set [4] is listed as 8 h.

On to `COCCOCCOCCOCCOCCOCCN[C@H]1[C@H]2CCCCC[C@]1(C)c1cc(O)ccc1C2` [JK-2215D02, Monomethoxyhexaethylene Glycol-Dezocine Conjugate], for which, in data set [1] (setting [5]), the “Pain threshold value, Frey's hair” value came to 7.8 ± 0.8 g. Also, the “Pain threshold value, Frey's hair” value in data set [1] (0.25 h after administration) was determined as 10.3 ± 1.2 g. The “Pain threshold value, Frey's hair” value in data set [1] (2 h after administration) came to 12.1 ± 1.5 g. In addition, the “Pain threshold value, Frey's hair” value in data set [1] (6 h after administration) was found to be 13.2 ± 0.9 g. Further, in data set [1] (24 h after administration), the “Pain threshold value, Frey's hair” value is given as 10.7 ± 1.5 g. Also, in data set [3], the “AUClast (Plasma)” value was determined as 1.312 µg·h/mL, the “Cmax (Plasma)” value was 0.339 µg/mL, the “t1/2 (Plasma)” value amounted to 4.45 h and the “tmax (Plasma)” value came to 3 h. Besides, in data set [4], the “AUClast Ratio (Brain/Plasma)” value is given as 0.757, the “AUClast (Brain)” value amounted to 993 ng·h/g, the “Cmax (Brain)” value came to 166 ng/g and the “t1/2 (Brain)” value amounted to 18.7 h. Besides, the “tmax (Brain)” value in data set [4] was 8 h.

Consider `C[C@@]12CCCCC[C@@H](Cc3ccc(O)cc31)[C@@H]2NCCOCCOCCOCCOCCN[C@H]1[C@H]2CCCCC[C@]1(C)c1cc(O)ccc1C2` [JK-2215D03, Pentaethylene Glycol-Dezocine Conjugate], for which, in data set [1] (setting [5]), the “Pain threshold value, Frey's hair” value is 7.7 ± 1.4 g. For the same compound, in data set [1] (0.25 h after administration), the “Pain threshold value, Frey's hair” value worked out at 9.2 ± 1.4 g. For the same compound, the “Pain threshold value, Frey's hair” value in data set [1] (2 h after administration) is listed as 11.2 ± 2.0 g. In addition, the “Pain threshold value, Frey's hair” value in data set [1] (6 h after administration) was found to be 11.4 ± 0.9 g. In addition, in data set [1] (24 h after administration), the “Pain threshold value, Frey's hair” value stood at 10.6 ± 2.0 g. Besides, in data set [3], the AUC(0-t) was 1.23 µg·h/mL, the concentration peaked (Cmax) at 0.344 µg/mL, the Tmax worked out at 2 h and the half-life was 4.12 h. In data set [4], the “AUClast (Brain)” value is 813 ng·h/g, the “Cmax (Brain)” value is given as 129 ng/g, the Kp turned out to be 0.659 and the Tmax is 7 h. This compound also showed a half-life in data set [4] of 19.7 h.
